Data published in patent US4317912A, “Tetracyclic indole derivatives” (Farmitalia Carlo Erba S.p.A., priority 1979, dated 1982).

What was measured:
[1] = tested on: spontaneously hypertensive male rats, strain MHS; assay: Anti-hypertensive activity in spontaneously hypertensive rats (MHS), blood pressure and heart rate measured at the tail; type: in vivo, rat (spontaneously hypertensive; conditions: MHS rats; for Change in BP, 1st day, 1 hr after dose / Change in HR, 1st day, 1 hr after dose / Change in BP, 1st day, 5 hrs after dose / Change in HR, 1st day, 5 hrs after dose / Change in BP, 4th day, 1 hr after dose / Change in HR, 4th day, 1 hr after dose / Change in HR, 4th day, 5 hrs after dose / Change in BP, 4th day, 5 hrs after dose: mean of 4 animals
Experimental: Four spontaneously hypertensive male rats, strains MHS, weighing 250-300 g for each group were used.
The animals were treated for four consecutive days. Drugs were administered by gastric gavage, suspended in 5% arabic gum (0.2 ml/100 g body weight). Blood pressure (BP) and heart rate (HR) were measured at the tail by BP Recorder W+W. Blood pressure and heart rate were measured on the 1st and 4th day of treatment 1 hour before and 1 and 5 hours after drug administration.
*Data of LD50 from the literature. In Tables 1 and 2 are reported
the results of the study of the activity of compounds 355/1165 and
355/1166 upon the BP and HR (measured indirectly by means of a tail cuff)
of spontaneous hypertensive rats, MHS strain (4 rats each group). The
compounds were given orally, once a day for 4 consecutive days.

[2] = Acute (orientative) oral toxicity in mice; conditions: mouse, in vivo
Excerpt: The male mice for each group were orally treated with drugs at different dose levels for the determination of orientative toxicity.

[3] = tested on: spontaneously hypertensive rats (Okamoto strain); assay: Anti-hypertensive activity in conscious spontaneously hypertensive rats (Okamoto), carotid artery catheter; type: in vivo, rat (spontaneously hypertensive; conditions: 3 mg/kg os, mean of 6 animals
Experimental: Blood pressure recordings were made in conscious hypertensive unrestrained rats weighing approximately 300 g, via a catheter cronically inserted into the left common carotid artery. Implantation of arterial cannula was made under sodium pentobarbital anesthesia (50 mg/kg i.p.). A 1 cm long incision was made through the previously shaved ventral surface of the neck and the tissues overlying the trachea parted by blunt dissection to reveal the carotid artery. The polyethylene catheter used was made with PE 50 tubing, previously filled with saline containing 250 I.U./ml heparin. The tip of the cannula was pushed at least 2 cm inside the vessel toward the heart. The cannula was then firmly tied and passed beneath the skin to emerge from a small incision in the back of the neck. During the postoperative period and before the start of each recording session, the cannula was flushed through daily with saline containing heparin (250 U.I./ml). The experiments were performed two days after surgery. Drugs were administered by gastric gavage.

For CN1CC(CC(C#N)C(N)=O)C2=Cc3cccc4[nH]cc(c34)CC21 (stereo not drawn) [355/1229, 2-Cyano-3-[5(10→9)abeo-9,10-didehydro-6-methyl-ergoline-8β]-propionamide], the “Change in BP, 1st day, 1 hr after dose” value ([1]; 1 mg/kg os) was -26 mmHg, the “Change in HR, 1st day, 1 hr after dose” value ([1]; 1 mg/kg os) was “+25 b/min” and the “Change in BP, 1st day, 5 hrs after dose” value ([1]; 1 mg/kg os) was -19 mmHg. The “Change in HR, 1st day, 5 hrs after dose” value ([1]; 1 mg/kg os) was -2 b/min, the “Change in BP, 4th day, 1 hr after dose” value ([1]; 1 mg/kg os) was -21 mmHg and the “Change in HR, 4th day, 1 hr after dose” value ([1]; 1 mg/kg os) was -18 b/min. For the same molecule, the “Change in HR, 4th day, 5 hrs after dose” value ([1]; 1 mg/kg os) was -53 b/min, the “Change in BP, 1st day, 1 hr after dose” value ([1]; 5 mg/kg os) was -26 mmHg and the “Change in HR, 1st day, 1 hr after dose” value ([1]; 5 mg/kg os) was -40 b/min. For the same molecule, the “Change in BP, 1st day, 5 hrs after dose” value ([1]; 5 mg/kg os) was -20 mmHg, the “Change in HR, 1st day, 5 hrs after dose” value ([1]; 5 mg/kg os) was -35 b/min and the “Change in BP, 4th day, 1 hr after dose” value ([1]; 5 mg/kg os) was -36 mmHg. The “Change in HR, 4th day, 1 hr after dose” value ([1]; 5 mg/kg os) was -50 b/min, the “Change in BP, 4th day, 5 hrs after dose” value ([1]; 5 mg/kg os) was -45 mmHg and the “Change in HR, 4th day, 5 hrs after dose” value ([1]; 5 mg/kg os) was -55 b/min. For the same molecule, the “Activity compared with Hydralazine and α-methyl-DOPA” value ([1]; 5 mg/kg per os, 1st and 4th day, vs Hydralazine (3 mg/kg per os) and α-methyl-DOPA) was “greater activity”, the “Effect on blood pressure” value ([1]; 1 and 5 mg/kg orally, 1st and 4th day) was “both dosages reduce BP in a similar way on the 1st day, when during the 4th day the decrease of BP is dose-dependent” and the “Tolerance after repeated administration” value ([1]; four days, 355/1165 2 mg/kg, 355/1226 3 mg/kg, 355/1225 and 355/1229 5 mg/kg per os) was “No tolerance occurs”. It also gave an LD50 at 168 h [2] of 600 mg/kg.
In the case of NNc1nncc2ccccc12 [Hydralazine, reference compound], the “Change in BP, 1st day, 1 hr after dose” value ([1]; 1 mg/kg os) is reported as 0 mmHg, the “Change in HR, 1st day, 1 hr after dose” value ([1]; 1 mg/kg os) is reported as “+20 b/min” and the “Change in BP, 1st day, 5 hrs after dose” value ([1]; 1 mg/kg os) is reported as -10 mmHg. For the same molecule, the “Change in HR, 1st day, 5 hrs after dose” value ([1]; 1 mg/kg os) was “+25 b/min”, the “Change in BP, 4th day, 1 hr after dose” value ([1]; 1 mg/kg os) was “+7 mmHg” and the “Change in HR, 4th day, 1 hr after dose” value ([1]; 1 mg/kg os) was “+30 b/min”. The “Change in BP, 4th day, 5 hrs after dose” value ([1]; 1 mg/kg os) was “+2 mmHg”, the “Change in HR, 4th day, 5 hrs after dose” value ([1]; 1 mg/kg os) was “+15 b/min” and the “Change in BP, 1st day, 1 hr after dose” value ([1]; 3 mg/kg os) was -43 mmHg. The “Change in HR, 1st day, 1 hr after dose” value ([1]; 3 mg/kg os) was “+31 b/min”, the “Change in BP, 1st day, 5 hrs after dose” value ([1]; 3 mg/kg os) was -29 mmHg and the “Change in HR, 1st day, 5 hrs after dose” value ([1]; 3 mg/kg os) was “+34 b/min”. The “Change in BP, 4th day, 1 hr after dose” value ([1]; 3 mg/kg os) was -15 mmHg, the “Change in HR, 4th day, 1 hr after dose” value ([1]; 3 mg/kg os) was “+18 b/min” and the “Change in BP, 4th day, 5 hrs after dose” value ([1]; 3 mg/kg os) was “+5 mmHg”. For the same molecule, the “Change in HR, 4th day, 5 hrs after dose” value ([1]; 3 mg/kg os) was “+13 b/min”, the “Effect on heart rate” value ([1]; oral, all doses treated (Table 2)) was “no effect on heart rate” and the “Change in blood pressure after treatment, 30'” value ([3]; 30') was -25 mmHg. For the same molecule, the “Change in heart rate after treatment, 30'” value ([3]; 30') was “+50 b/min”, the “Change in blood pressure after treatment, 60'” value ([3]; 60') was -33 mmHg and the “Change in heart rate after treatment, 60'” value ([3]; 60') was “+21 b/min”. For the same molecule, the “Change in blood pressure after treatment, 120'” value ([3]; 120') was -40 mmHg, the “Change in heart rate after treatment, 120'” value ([3]; 120') was “+52 b/min” and the “Change in blood pressure after treatment, 240'” value ([3]; 240') was -29 mmHg. For the same molecule, the “Change in heart rate after treatment, 240'” value ([3]; 240') was “+3 b/min”, the “Change in blood pressure after treatment, 360'” value ([3]; 360') was -7 mmHg and the “Change in heart rate after treatment, 360'” value ([3]; 360') was “+3 b/min”.
